Laboratory results from PubChem BioAssay (NCI).
Where “and” joins values, the source holds several entries; their conditions need not be identical. Identical values can stand only once.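 These data come from cells grown in 96-well plates and exposed to compound for 48 hours at five concentrations. GI50: concentration for 50% inhibition of growth. Definition used: TGI = concentration required for complete inhibition of growth.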

Experiments:
Test in all cases: NCI tumour cell line growth inhibition, 48 h
[1] = system: M19-MEL melanoma
[2] = system: XF 498 CNS
[3] = system: DMS 273 small cell lung
[4] = system: DLD-1 colon
[5] = system: SNB-78 CNS
[6] = system: T-47D breast
[7] = system: MDA-N
[8] = system: HOP-18 NSCLC

Work on `O/N=C/c1ccc(O)c(O)c1` yielded a TGI [1] greater than 100 µM, a TGI [2] greater than 100 µM and a TGI [3] greater than 100 µM. The TGI [4] was greater than 100 µM and the TGI [5] was greater than 100 µM.

Work on `CCCCn1c(=O)c(/C=C/C(=O)/C=C/c2cc3ccccc3n(CCCC)c2=O)cc2ccccc21` yielded a GI50 [6] of 2.28 µM and a TGI [6] of 6.33 µM.

`CCOC(=O)/C=C/c1cccc(F)c1` gave a TGI [7] greater than 100 µM and a TGI [6] greater than 100 µM.

In the case of `N#Cc1cc(S(=O)(=O)Nc2nc3ccccc3o2)c(SCc2ccccc2)cc1Cl`, the GI50 [6] was 23.7 µM and the TGI [6] was 80.9 µM.

Work on `NC(Cc1ccccc1)c1nccs1` (stereo not given) yielded a TGI [7] greater than 100 µM.

`CC(C)(C)OC(=O)N[C@@H](Cc1ccccc1)C(=O)N(Cc1ccccc1)C1(C(=O)NCc2ccccc2)CCN(Cc2ccccc2)CC1` was tested, and the GI50 [6] was 2.89 µM and the TGI [6] was greater than 100 µM.

Compound `CN1CCN(CCCOc2cc(O)c3c(=O)cc(-c4ccccc4)oc3c2)CC1` has a GI50 [6] of 28 µM and a TGI [6] of 79.2 µM.

With `CCn1c2ccccc2c2cc(C(=O)c3ccc(C)c4ccccc34)ccc21` the GI50 [6] was 0.76 µM and the TGI [6] was greater than 100 µM.

For `COC(=O)C1CCc2nnc(-c3ccccc3)n21` (stereo not given), the TGI [1] was greater than 100 µM, the TGI [2] was greater than 100 µM and the TGI [4] was greater than 100 µM. It also gave a TGI [5] greater than 100 µM.

`CNC(=O)c1cncc(/C=C/c2ccccc2Cl)c1` showed a GI50 [6] greater than 23.6 µM and a TGI [6] greater than 25 µM.

`CCn1c(-c2nonc2N)nc2c(N3CCCC3)nccc21` was tested, and the GI50 [6] was 20.4 µM and the TGI [6] was greater than 25 µM.

With `O=C(O)c1ccc(SSc2ccc(C(=O)O)cn2)nc1` the TGI [7] was greater than 100 µM and the TGI [6] was greater than 100 µM.

Compound `CCC[CH2][Sn]1([CH2]CCC)[S]CC[N]1S(=O)(=O)c1ccc(C)cc1` has a GI50 [1] of 1.32 µM, a TGI [1] of 3.03 µM and a GI50 [3] of 1.65 µM. It also gave a TGI [3] of 3.16 µM, a GI50 [4] of 1.58 µM and a TGI [4] of 2.99 µM.

Work on `C[C@@H]1CC[C@@]2(NC1)O[C@H]1C[C@H]3[C@@H]4CC[C@H]5C[C@@H](O)CC[C@]5(C)[C@H]4CC[C@]3(C)[C@H]1[C@@H]2C` yielded a TGI [7] greater than 100 µM and a TGI [6] greater than 100 µM.

In the case of `O=P(O)(O)OCC1OC(n2cnc3c(NCc4ccccc4)ncnc32)C(O)C1O` (stereo not given), the GI50 [6] was 1.37 µM and the TGI [6] was 10.3 µM.

With `CC1=NOC(=O)/C1=C/c1ccc2c(c1)OCO2` the TGI [7] was 85.7 µM and the TGI [6] was greater than 100 µM.

`CC1SC(c2ccc(Cl)cc2Cl)N(NC(=O)C(O)c2ccccc2)C1=O` (stereo not given) was tested, and the GI50 [6] was greater than 100 µM and the TGI [6] was greater than 100 µM.

`CC(SCc1ccccc1)C(=O)O` (stereo not given) was tested, and the TGI [7] was greater than 100 µM and the TGI [6] was greater than 100 µM.

`NC(=O)c1ccc(Cl)c([N+](=O)[O-])c1` was tested, and the TGI [8] was greater than 100 µM, the TGI [1] was greater than 100 µM and the TGI [2] was greater than 100 µM. The TGI [3] was greater than 100 µM, the TGI [4] was greater than 100 µM and the TGI [5] was greater than 100 µM.

For `CC1(C)CCC[C@]2(C)c3ccccc3C(=O)CC12` (stereo not given in full), the GI50 [6] was 53.5 µM and the TGI [6] was greater than 100 µM.

Compound `O=c1/c(=N\Nc2ccccc2)c2cccc3ccc4cccc1c4c32` has a TGI [7] greater than 100 µM and a TGI [6] greater than 100 µM.

Compound `C1=CCCC=CCC1.C[PH+](C)C.C[PH+](C)C.C[PH+](C)C.[Cl-].[Ir]` has a GI50 [8] greater than 100 µM, a TGI [8] greater than 100 µM and a GI50 [1] of 39.8 µM. It also gave a TGI [1] greater than 100 µM, a GI50 [4] greater than 100 µM and a TGI [4] greater than 100 µM. It also gave a GI50 [5] greater than 100 µM and a TGI [5] greater than 100 µM.

`COC(=O)[C@H](Cc1cn(C)cn1)NC(=O)[C@H](Cc1ccccc1)NC(=O)Nc1cc(C(F)(F)F)cc(C(F)(F)F)c1` was tested, and the GI50 [6] was 3.54 µM and 8.29 µM and the TGI [6] was 27 µM.

With `CC(C)c1ccc(NC(=O)Cc2ccc(Nc3ncnc4cc(-c5cnn(CCN(C)C)c5)ccc34)cc2)cc1` the GI50 [6] was 1.38 µM and the TGI [6] was 3.73 µM.

In the case of `COc1cc2nccc(Oc3ccc(NC(=O)c4cn(C(C)C)c(=O)n(-c5ccc(F)cc5)c4=O)cc3F)c2cc1OC`, the GI50 [6] was 3.23 µM and the TGI [6] was 34.4 µM.

Work on `COc1cc(/C=C2\CCCC3=C2N=C2SC(C)=NN2C3c2cc(OC)c(OC)c(OC)c2)cc(OC)c1OC` (stereo not given) yielded a GI50 [6] greater than 100 µM and a TGI [6] greater than 100 µM.

In the case of `COc1cc(NCCCCCN=C(N)NC(N)=NC(C)C)c2ncccc2c1`, the GI50 [6] was 0.302 µM and the TGI [6] was 1.71 µM.

`CCC(CO)Nc1nc2c(c(=O)n(C)c(=O)n2C)n1CCO` (stereo not given) showed a TGI [1] greater than 100 µM, a TGI [3] greater than 100 µM and a TGI [5] of 53.5 µM.

With `COc1cc2c3c(n(CCCNCCCN)c(=O)c2cc1OC)-c1cc2c(cc1C3=O)OCO2` the GI50 [6] was 2.8 µM and the TGI [6] was 14.7 µM.

In the case of `CC(=O)[CH-]C(=O)c1ccccc1.CC(=O)[CH-]C(=O)c1ccccc1.[O-]c1ccc2c(c1)OCO2.[O-]c1ccc2c(c1)OCO2.[Ti+4]`, the GI50 [8] was 37.7 µM, the TGI [8] was greater than 100 µM and the GI50 [1] was 21.9 µM. The TGI [1] was 54.5 µM, the GI50 [4] was 38.3 µM and the TGI [4] was greater than 100 µM.

For `C[N+](C)=c1ccc2nc3c(cc(NCCCNc4cc5oc6cc(=[N+](C)C)ccc-6nc5c5ccccc45)c4ccccc43)oc-2c1`, the GI50 [6] was 3.12 µM and the TGI [6] was greater than 24.2 µM.
